Patent US10349659B2, “Plant disease control composition and plant disease control method” (SUMITOMO CHEMICAL COMPANY, LIMITED, priority 2015, dated 2019)

What was measured:
[1] = tested on: wheat rust fungus (Puccinia recondita); experiment: Test Example 4: foliar spray of flowable formulations on wheat, wheat rust lesion area; format: in vivo; conditions: foliar spray on wheat one day before inoculation, lesion area after ten days at 23° C.
Method: Five (5) parts of the present compound 1, 35 parts of a mixture of white carbon and ammonium polyoxyethylene alkyl ether sulfate (the weight ratio of 1:1) and […] of water were mixed, and the mixture was then finely-ground by a wet grinding method to obtain a flowable formulation comprising the present compound 1. Separately, the flowable formulation comprising the present compound 2-1 was prepared according to the above-mentioned similar method except that the present compound 2-1 was used instead of the present compound 1 to form a flowable formulation comprising the present compound 2-1.
Each of the above-mentioned respective flowable formulations, and the flowable formulation comprising the present compound 1 and the present compound 2-1 that was prepared according to the above-mentioned Formulation Example 3 was diluted with water such that each concentration of the respective compounds in the dilution solutions was adjusted to that indicated in Table 6, to prepare the dilution solutions, respectively.
A plastic pot was filled with soil, and thereto wheat (cultivar. Shirogane) was seeded, and the plants were grown in a greenhouse for ten days. […]
From each of the lesion area of the treated group and the untreated group, respectively, the efficacy of the treated group was calculated by the below-mentioned Equation 2. […]

wheat leaf blight fungus = experiment: Test Example 3: growth of wheat leaf blight fungus in YBG medium, microtiter plate; format: cell-based, Mycosphaerella graminicola; conditions: 18° C., six days, absorbance 550 nm
Method: The present compound 1 or the present compound 2-1 was dissolved into dimethyl sulfoxide such that each concentration of the present compound 1 or the present compound 2-1 was adjusted to one hundred fifty times as much as the concentration indicated in the below-mentioned Table 5. The resultant agent solution was dispensed into a microtiter plate (with 96 wells) in 1 μl portion thereof per well. One hundred forty nine (149) μl of YBG medium (which was prepared by dissolving 10 g of yeast extract, 10 g of Bacto Peptone, and 20 mL of glycerol into 1 L of water, followed by sterilizing the medium) was dispensed into the wells to which the agent solution(s) was/were dispensed. The plate was cultivated at 18° C. for six days, thereby allowing wheat leaf blight fungus to undergo proliferation, and the absorbance at 550 nm of each well of the micro titer plate was then measured to examine a degree of growth of the wheat leaf blight fungus (hereinafter referred to as “treated group”).
Whereas, wheat leaf blight fungus was proliferated similarly to the case of the treated group except that dimethyl sulfoxide was used instead of the agent solution, and the degree of the growth was examined (hereinafter referred to as “untreated group”). The efficacy was calculated from the respective obtained degree of growth by the below-mentioned “Equation 1”. […]

CC1CC(C)(C)c2cccc(NC(=O)c3cn(C)nc3C(F)F)c21 (stereo not shown) [Present compound 1]
Efficacy (%) ([1]; 0.0005 ppm): 56% | Efficacy (%) ([1]; 0.01 ppm): 68% | Efficacy (%) (wheat leaf blight fungus; concentration in medium 0.005 ppm): 15% | Efficacy (%) (wheat leaf blight fungus; concentration in medium 0.1 ppm): 70%
